Measurements published in ChEMBL document CHEMBL4359904, “Structural tuning of acridones for developing anticancer agents targeting dihydrofolate reductase” (Bioorg Med Chem Lett, 2019).
Activity calls are given as the source filed them. The rule behind the calls is not given here.

Key:
MCF7 = test: Growth inhibition of human MCF7 cells at 10^-5 M incubated for 48 hrs by sulforhodamine B assay relative to control; format: functional; settings: MCF7, 48 h, read-out: GI
NCI-H460 [1] = test: Growth inhibition of human NCI-H460 cells incubated for 48 hrs by sulforhodamine B assay; format: functional; settings: NCI-H460, 48 h
SW-620 = test: Growth inhibition of human SW620 cells incubated for 48 hrs by sulforhodamine B assay; format: functional; settings: SW-620, 48 h
SF-268 = test: Growth inhibition of human SF268 cells incubated for 48 hrs by sulforhodamine B assay; format: functional; settings: SF-268, 48 h
OVCAR-5 = test: Growth inhibition of human OVCAR5 cells incubated for 48 hrs by sulforhodamine B assay; format: functional; settings: OVCAR-5, 48 h
786-0 = test: Growth inhibition of human 786-0 cells incubated for 48 hrs by sulforhodamine B assay; format: functional; settings: 786-0, 48 h
LOX IMVI = test: Growth inhibition of human LOXIMVI cells incubated for 48 hrs by sulforhodamine B assay; format: functional
Dihydrofolate reductase [2] = molecular target: T1, Dihydrofolate reductase (Homo sapiens, UniProt P00374); test: Inhibition of human dihydrofolate reductase using dihydrofolic acid as substrate preincubated for 1 hr in presence of NADPH followed by substrate addition by enzyme immunoassay
T1 sequence (P00374 whole entry): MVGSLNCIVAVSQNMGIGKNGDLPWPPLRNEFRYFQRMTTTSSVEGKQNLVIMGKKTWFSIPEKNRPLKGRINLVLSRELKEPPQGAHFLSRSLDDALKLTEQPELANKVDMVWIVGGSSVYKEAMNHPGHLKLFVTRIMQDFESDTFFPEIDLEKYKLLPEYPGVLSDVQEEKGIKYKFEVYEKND

SK-MEL-2 = test: Growth inhibition of human SK-MEL-2 cells incubated for 48 hrs by sulforhodamine B assay; format: functional; settings: SK-MEL-2, 48 h
A549 = test: Growth inhibition of human A549/ATCC cells incubated for 48 hrs by sulforhodamine B assay; format: functional; settings: A549, 48 h
NCI-H460 [3] = test: Growth inhibition of human NCI-H460 cells at 10^-5 M cells incubated for 48 hrs by sulforhodamine B assay relative to control; format: functional
[4] = test system: Panel NCI-60 (60 carcinoma cell lines); test: Growth inhibition of human NCI60 cells at incubated for 48 hrs by sulforhodamine B assay; format: functional
SF-539 = test: Growth inhibition of human SF539 cells incubated for 48 hrs by sulforhodamine B assay; format: functional; settings: SF-539, 48 h
UO-31 = test: Growth inhibition of human UO31 cells incubated for 48 hrs by sulforhodamine B assay; format: functional; settings: UO-31, 48 h
HT-29 = test: Growth inhibition of human HT-29 cells at 10^-5 M incubated for 48 hrs by sulforhodamine B assay relative to control; format: functional; settings: HT-29, 48 h, read-out: GI
DU-145 = test: Growth inhibition of human DU145 cells incubated for 48 hrs by sulforhodamine B assay; format: functional; settings: DU-145, 48 h
MDA-MB-231 = test: Growth inhibition of human MDA-MB-231/ATCC cells incubated for 48 hrs by sulforhodamine B assay; format: functional; settings: MDA-MB-231, 48 h
SN12C = test: Growth inhibition of human SN12C cells incubated for 48 hrs by sulforhodamine B assay; format: functional
HCC 2998 = test: Growth inhibition of human HCC2998 cells incubated for 48 hrs by sulforhodamine B assay; format: functional; settings: HCC 2998, 48 h
C6 = test: Cell cycle arrest in rat C6 cells assessed as decrease in cell population at G2/M phase measured after 24 hrs by propidium iodide staining based flow cytometry analysis; format: functional
SNB-75 = test: Growth inhibition of human SNB75 cells incubated for 48 hrs by sulforhodamine B assay; format: functional; settings: SNB-75, 48 h
UACC-257 = test: Growth inhibition of human UACC257 cells incubated for 48 hrs by sulforhodamine B assay; format: functional; settings: UACC-257, 48 h
OVCAR-3 = test: Growth inhibition of human OVCAR3 cells incubated for 48 hrs by sulforhodamine B assay; format: functional; settings: OVCAR-3, 48 h
CCRF-CEM = test: Growth inhibition of human CCRF-CEM cells at 10^-5 M incubated for 48 hrs by sulforhodamine B assay relative to control; format: functional; settings: read-out: GI
MOLT-4 = test: Growth inhibition of human MOLT4 cells incubated for 48 hrs by sulforhodamine B assay; format: functional; settings: MOLT-4, 48 h
HL-60(TB) = test: Growth inhibition of human HL-60(TB) cells incubated for 48 hrs by sulforhodamine B assay; format: functional; settings: HL-60, 48 h
Dihydrofolate reductase [5] = molecular target: T1, Dihydrofolate reductase; test: Inhibition of human dihydrofolate reductase assessed as inhibition constant by UV-Vis spectra based Benesi Hilebrand equation analysis
NCI-H522 = test: Growth inhibition of human NCI-H522 cells incubated for 48 hrs by sulforhodamine B assay; format: functional; settings: NCI-H522, 48 h
IGROV-1 = test: Growth inhibition of human IGROV1 cells at 10^-5 M incubated for 48 hrs by sulforhodamine B assay relative to control; format: functional; settings: IGROV-1, 48 h, read-out: GI
[6] = read-out: pLC50 (the source's name) (converted)
[7] = read-out: LC50 (the source's name)

`O=c1c2ccccc2n(CC2CO2)c2ccccc12` (racemic) showed an inhibition of growth at 10 µM (MCF7) of 100%, a GI50 (NCI-H460 [1]) of 0.38 µM and a CC50 (NCI-H460 [1]; [6]) of over 100 µM. The TGI (NCI-H460 [1]; read-out: pTGI (converted)) was 1.66 µM, the GI50 (SW-620; read-out: GI50) was 0.05 µM and the CC50 (SW-620; [7]) was over 0.05 µM. For the same compound, the GI50 (SW-620; read-out: pGI50 (converted)) was 0.0562 µM, the CC50 (SW-620; [6]) was over 100 µM and the TGI (SW-620; read-out: pTGI (converted)) was 1.2 µM. For the same compound, the GI50 (SF-268; read-out: GI50) was 0.16 µM, the CC50 (SF-268; [7]) was over 100 µM and the GI50 (SF-268; read-out: pGI50 (converted)) was 0.17 µM. The CC50 (SF-268; [6]) was over 100 µM, the TGI (SF-268; read-out: pTGI (converted)) was 1.12 µM and the GI50 (OVCAR-5) was 0.513 µM. It also gave a CC50 (OVCAR-5; [6]) of 24 µM, a TGI (OVCAR-5; read-out: pTGI (converted)) of 3.63 µM and a GI50 (786-0) of 0.372 µM. The CC50 (786-0; [6]) was over 100 µM, the TGI (786-0; read-out: pTGI (converted)) was 5.25 µM and the GI50 (LOX IMVI; read-out: GI50) was 0.12 µM. For the same compound, the CC50 (LOX IMVI; [7]) was 5.12 µM, the GI50 (LOX IMVI; read-out: pGI50 (converted)) was 0.126 µM and the CC50 (LOX IMVI; [6]) was 5.13 µM. It also gave a TGI (LOX IMVI; read-out: pTGI (converted)) of 0.646 µM, an IC50 (Dihydrofolate reductase [2]) of 0.02 µM and a GI50 (SK-MEL-2) of 0.234 µM. The CC50 (SK-MEL-2; [6]) was 2.04 µM, the TGI (SK-MEL-2; read-out: pTGI (converted)) was 0.513 µM and the GI50 (A549) was 0.479 µM. For the same compound, the CC50 (A549; [6]) was over 100 µM, the TGI (A549; read-out: pTGI (converted)) was 3.8 µM and the “growth inhibition (GI)” value (NCI-H460 [3]) was 100%. For the same compound, the GI50 [4] was 1.6 µM, the TGI [4] was 5.6 µM and the CC50 [4, 7] was 44.4 µM. For the same compound, the GI50 (SF-539) was 0.347 µM, the CC50 (SF-539; [6]) was over 100 µM and the TGI (SF-539; read-out: pTGI (converted)) was 1.78 µM. The GI50 (UO-31) was 0.178 µM, the TGI (UO-31; read-out: pTGI (converted)) was 0.407 µM and the inhibition of growth at 10 µM (HT-29) was 100%. For the same compound, the GI50 (DU-145) was 0.347 µM, the CC50 (DU-145; [6]) was over 100 µM and the TGI (DU-145; read-out: pTGI (converted)) was 1.48 µM. For the same compound, the GI50 (MDA-MB-231) was 0.631 µM, the CC50 (MDA-MB-231; [6]) was over 100 µM and the TGI (MDA-MB-231; read-out: pTGI (converted)) was 3.31 µM. The GI50 (SN12C) was 0.229 µM, the CC50 (SN12C; [6]) was 6.17 µM and the TGI (SN12C; read-out: pTGI (converted)) was 1.2 µM. It also gave a GI50 (HCC 2998) of 0.275 µM, a CC50 (HCC 2998; [6]) of 10 µM and a TGI (HCC 2998; read-out: pTGI (converted)) of 1.02 µM. The inhibition (C6) was “Active”, the GI50 (SNB-75) was 0.269 µM and the CC50 (SNB-75; [6]) was 6.31 µM. The TGI (SNB-75; read-out: pTGI (converted)) was 1.86 µM, the GI50 (UACC-257) was 0.457 µM and the CC50 (UACC-257; [6]) was over 100 µM. For the same compound, the TGI (UACC-257; read-out: pTGI (converted)) was 2.82 µM, the GI50 (OVCAR-3) was 0.288 µM and the CC50 (OVCAR-3; [6]) was over 100 µM. For the same compound, the TGI (OVCAR-3; read-out: pTGI (converted)) was 1.51 µM, the inhibition of growth at 10 µM (CCRF-CEM) was 93% and the GI50 (MOLT-4; read-out: GI50) was 0.04 µM. The CC50 (MOLT-4; [7]) was over 100 µM, the GI50 (MOLT-4; read-out: pGI50 (converted)) was 0.0417 µM and the CC50 (MOLT-4; [6]) was over 100 µM. The TGI (MOLT-4; read-out: pTGI (converted)) was 0.316 µM, the GI50 (HL-60(TB)) was 0.204 µM and the TGI (HL-60(TB); read-out: pTGI (converted)) was 0.49 µM. For the same compound, the Ki (Dihydrofolate reductase [5]) was 1.6 µM, the GI50 (NCI-H522) was 0.372 µM and the CC50 (NCI-H522; [6]) was 19.5 µM. The TGI (NCI-H522; read-out: pTGI (converted)) was 1.32 µM and the inhibition of growth at 10 µM (IGROV-1) was 100%.
